Results taken from US11090247B2, “Compositions for protecting the skin from heavy metals and formaldehyde” (FNG RESEARCH CO., LTD., priority 2016, dated 2021).

Tests used:
[1] = Removal test of heavy metals of active ingredients (pig skin, ICP-MS): Pb; details: contaminated pig skin
Description: (§1) (1) Preparation of Heavy Metal Contamination Sources and Pig Skin Samples
(§2) A pig was slaughtered, flayed and the bristle was shaved. The pig skin was cut to prepare 5*5 cm size of skin samples respectively.
(§3) The said skin samples were cleanly wiped with wet gauze, and then, added to 50 ml of methanol and extracted by shaking with ultrasonic for 60 min. 50 ml of methanol was further added and mixed. The pig skin samples were removed from the extracted solutions to prepare the test solutions.
(§4) The test solutions were analyzed for heavy metal components using an inductively coupled plasma mass spectrometer (ICP-MS, Xseries™ 2, Thermo Fisher Scientific, UK).

[2] = Removal test of heavy metals of active ingredients (pig skin, ICP-MS): Cd; details: contaminated pig skin
Description: as §1, §2, §3, §4

[3] = Removal test of heavy metals of active ingredients (pig skin, ICP-MS): Cu; details: contaminated pig skin
Description: as §1, §2, §3, §4

human skin = assay: Skin irritation test of active ingredient (patch method, CTFA guidelines); assay type: in vivo; set-up: key to Degree of irritation: 0–0.1 none, 0.11–0.3 weak, 0.31–0.5 moderate, ≥0.51 strong irritation; details: 20 people, patch 24 hours; for Test result(number of subject) (+): (+): Apparent reddening than periphery; for Test result(number of subject) (++): (++): More reddened and swollen than periphery; for Test result(number of subject) (±): (±): slightly reddish than the periphery; for Test result(number of subject) (−): (−): No erythema or particularly no symptoms
Description: A total of 20 people (10 men and 10 women in their 20 s and 30 s) were tested for skin irritation using the patch method according to the guidelines of CTFA (The Cosmetic, Toiletry & Fragrance Association, Inc. Washington, D.C.).
A filter paper disk was placed in an 8 mm diameter, 10 panels of pin chamber.
After 24 hours, the pin chamber was removed, and skin conditions were visually observed.
[Criteria for Skin Irritation]
(−): No erythema or particularly no symptoms; (±): slightly reddish than the periphery; (+): Apparent reddening than periphery; (++): More reddened and swollen than periphery.
[Grade for Skin Irritation]
Degree of irritation 0-0.1: Grade I (unstimulated);
Degree of irritation 0.11-0.3: Grade II (weakly stimulated);
Degree of irritation 0.31-0.5: Grade III (moderately stimulated);
Degree of irritation 0.51 or more: Grade IV (strongly stimulated)

[4] = Formaldehyde removing ability test (GC); details: 2.0% formaldehyde solution; for Area (mAU*min) 30 min: formaldehyde GC area after 30 min; for Area (mAU*min) 30 min / Area (mAU*min) 180 min: 3 molar equivalents, room temperature; for Area (mAU*min) 180 min: formaldehyde GC area after 180 min; for Area (mAU*min) Initial: formaldehyde GC area, initial state, 3 molar equivalents of compound

O=C(O)c1ccc(N2CCN(c3ccc(C(=O)O)o3)CCN(c3ccc(C(=O)O)o3)CCN(c3ccc(C(=O)O)o3)CC2)o1 [Embodiment 8, 5,5′,5″,5′″-(1,4,7,10-tetraazacyclododecane-1,4,7,10-tetrayl)tetrakis(furan-2-carboxylic acid)]
Removal of Heavy metals Pb (%) ([1]; 0.1 wt % aqueous solution): 91.4% | Removal of Heavy metals Pb (%) ([1]; 0.5 wt % aqueous solution): 93.4% | Removal of Heavy metals Pb (%) ([1]; 1.0 wt % aqueous solution): 94.0% | Removal of Heavy metals Cd (%) ([2]; 0.1 wt % aqueous solution): 90.4% | Removal of Heavy metals Cd (%) ([2]; 0.5 wt % aqueous solution): 91.3% | Removal of Heavy metals Cd (%) ([2]; 1.0 wt % aqueous solution): 93.4% | Removal of Heavy metals Cu (%) ([3]; 0.1 wt % aqueous solution): 94.3% | Removal of Heavy metals Cu (%) ([3]; 0.5 wt % aqueous solution): 96.8% | Removal of Heavy metals Cu (%) ([3]; 1.0 wt % aqueous solution): 97.2% | Degree of irritation (human skin; 0.1 wt %): 0 | Grade (human skin; 0.1 wt %): I (Degree of irritation 0-0.1: Grade I (unstimulated)) | Test result(number of subject) (+) (human skin; 0.1 wt %): 0 | Test result(number of subject) (++) (human skin; 0.1 wt %): 0 | Test result(number of subject) (±) (human skin; 0.1 wt %): 0 | Test result(number of subject) (−) (human skin; 0.1 wt %): 20 | Degree of irritation (human skin; 0.5 wt %): 0 | Grade (human skin; 0.5 wt %): I (Degree of irritation 0-0.1: Grade I (unstimulated)) | Test result(number of subject) (+) (human skin; 0.5 wt %): 0 | Test result(number of subject) (++) (human skin; 0.5 wt %): 0 | Test result(number of subject) (±) (human skin; 0.5 wt %): 0 | Test result(number of subject) (−) (human skin; 0.5 wt %): 20 | Degree of irritation (human skin; 1.0 wt %): 0.10 | Grade (human skin; 1.0 wt %): I (Degree of irritation 0-0.1: Grade I (unstimulated)) | Test result(number of subject) (+) (human skin; 1.0 wt %): 0 | Test result(number of subject) (++) (human skin; 1.0 wt %): 0 | Test result(number of subject) (±) (human skin; 1.0 wt %): 2 | Test result(number of subject) (−) (human skin; 1.0 wt %): 18 | Area (mAU*min) 30 min [4]: 0.168 mAU*min | Area (mAU*min) 180 min [4]: 0 mAU*min | Area (mAU*min) Initial [4]: 0.305 mAU*min

O=C(O)CN1CCCN(CC(=O)O)CCN(CC(=O)O)CCCN(CC(=O)O)CC1 [Embodiment 9, 2,2′,2″,2′″-(1,4,8,11-tetraazacyclotetradecane-1,4,8,11-tetrayl)tetraacetic acid]
Removal of Heavy metals Pb (%) ([1]; 0.1 wt % aqueous solution): 88.9% | Removal of Heavy metals Pb (%) ([1]; 0.5 wt % aqueous solution): 91.0% | Removal of Heavy metals Pb (%) ([1]; 1.0 wt % aqueous solution): 91.4% | Removal of Heavy metals Cd (%) ([2]; 0.1 wt % aqueous solution): 89.1% | Removal of Heavy metals Cd (%) ([2]; 0.5 wt % aqueous solution): 91.3% | Removal of Heavy metals Cd (%) ([2]; 1.0 wt % aqueous solution): 91.9% | Removal of Heavy metals Cu (%) ([3]; 0.1 wt % aqueous solution): 94.3% | Removal of Heavy metals Cu (%) ([3]; 0.5 wt % aqueous solution): 96.9% | Removal of Heavy metals Cu (%) ([3]; 1.0 wt % aqueous solution): 97.3% | Degree of irritation (human skin; 0.1 wt %): 0 | Grade (human skin; 0.1 wt %): I (Degree of irritation 0-0.1: Grade I (unstimulated)) | Test result(number of subject) (+) (human skin; 0.1 wt %): 0 | Test result(number of subject) (++) (human skin; 0.1 wt %): 0 | Test result(number of subject) (±) (human skin; 0.1 wt %): 0 | Test result(number of subject) (−) (human skin; 0.1 wt %): 20 | Degree of irritation (human skin; 0.5 wt %): 0 | Grade (human skin; 0.5 wt %): I (Degree of irritation 0-0.1: Grade I (unstimulated)) | Test result(number of subject) (+) (human skin; 0.5 wt %): 0 | Test result(number of subject) (++) (human skin; 0.5 wt %): 0 | Test result(number of subject) (±) (human skin; 0.5 wt %): 0 | Test result(number of subject) (−) (human skin; 0.5 wt %): 20 | Degree of irritation (human skin; 1.0 wt %): 0.10 | Grade (human skin; 1.0 wt %): I (Degree of irritation 0-0.1: Grade I (unstimulated)) | Test result(number of subject) (+) (human skin; 1.0 wt %): 0 | Test result(number of subject) (++) (human skin; 1.0 wt %): 0 | Test result(number of subject) (±) (human skin; 1.0 wt %): 2 | Test result(number of subject) (−) (human skin; 1.0 wt %): 18 | Area (mAU*min) 30 min [4]: 0.182 mAU*min | Area (mAU*min) 180 min [4]: 0 mAU*min | Area (mAU*min) Initial [4]: 0.305 mAU*min

O=C(O)c1ccc(N2CCCN(c3ccc(C(=O)O)cc3)CCN(c3ccc(C(=O)O)cc3)CCCN(c3ccc(C(=O)O)cc3)CC2)cc1 [Embodiment 10, 4,4′,4″,4′″-(1,4,8,11-tetraazacyclotetradecane-1,4,8,11-tetrayl)tetrabenzoic acid]
Removal of Heavy metals Pb (%) ([1]; 0.1 wt % aqueous solution): 88.3% | Removal of Heavy metals Pb (%) ([1]; 0.5 wt % aqueous solution): 90.5% | Removal of Heavy metals Pb (%) ([1]; 1.0 wt % aqueous solution): 90.9% | Removal of Heavy metals Cd (%) ([2]; 0.1 wt % aqueous solution): 85.7% | Removal of Heavy metals Cd (%) ([2]; 0.5 wt % aqueous solution): 90.4% | Removal of Heavy metals Cd (%) ([2]; 1.0 wt % aqueous solution): 91.1% | Removal of Heavy metals Cu (%) ([3]; 0.1 wt % aqueous solution): 94.1% | Removal of Heavy metals Cu (%) ([3]; 0.5 wt % aqueous solution): 96.0% | Removal of Heavy metals Cu (%) ([3]; 1.0 wt % aqueous solution): 96.5% | Degree of irritation (human skin; 0.1 wt %): 0 | Grade (human skin; 0.1 wt %): I (Degree of irritation 0-0.1: Grade I (unstimulated)) | Test result(number of subject) (+) (human skin; 0.1 wt %): 0 | Test result(number of subject) (++) (human skin; 0.1 wt %): 0 | Test result(number of subject) (±) (human skin; 0.1 wt %): 0 | Test result(number of subject) (−) (human skin; 0.1 wt %): 20 | Degree of irritation (human skin; 0.5 wt %): 0 | Grade (human skin; 0.5 wt %): I (Degree of irritation 0-0.1: Grade I (unstimulated)) | Test result(number of subject) (+) (human skin; 0.5 wt %): 0 | Test result(number of subject) (++) (human skin; 0.5 wt %): 0 | Test result(number of subject) (±) (human skin; 0.5 wt %): 0 | Test result(number of subject) (−) (human skin; 0.5 wt %): 20 | Degree of irritation (human skin; 1.0 wt %): 0.05 | Grade (human skin; 1.0 wt %): I (Degree of irritation 0-0.1: Grade I (unstimulated)) | Test result(number of subject) (+) (human skin; 1.0 wt %): 0 | Test result(number of subject) (++) (human skin; 1.0 wt %): 0 | Test result(number of subject) (±) (human skin; 1.0 wt %): 1 | Test result(number of subject) (−) (human skin; 1.0 wt %): 19 | Area (mAU*min) 30 min [4]: 0.171 mAU*min | Area (mAU*min) 180 min [4]: 0 mAU*min | Area (mAU*min) Initial [4]: 0.305 mAU*min

O=C(O)c1cncc(N2CCCN(c3cncc(C(=O)O)c3)CCN(c3cncc(C(=O)O)c3)CCCN(c3cncc(C(=O)O)c3)CC2)c1 [Embodiment 11, 5,5′,5″,5′″-(1,4,8,11-tetraazacyclotetradecane-1,4,8,11-tetrayl)tetranicotinic acid]
Removal of Heavy metals Pb (%) ([1]; 0.1 wt % aqueous solution): 87.9% | Removal of Heavy metals Pb (%) ([1]; 0.5 wt % aqueous solution): 89.2% | Removal of Heavy metals Pb (%) ([1]; 1.0 wt % aqueous solution): 91.2% | Removal of Heavy metals Cd (%) ([2]; 0.1 wt % aqueous solution): 86.7% | Removal of Heavy metals Cd (%) ([2]; 0.5 wt % aqueous solution): 88.9% | Removal of Heavy metals Cd (%) ([2]; 1.0 wt % aqueous solution): 91.0% | Removal of Heavy metals Cu (%) ([3]; 0.1 wt % aqueous solution): 93.8% | Removal of Heavy metals Cu (%) ([3]; 0.5 wt % aqueous solution): 96.0% | Removal of Heavy metals Cu (%) ([3]; 1.0 wt % aqueous solution): 96.8% | Degree of irritation (human skin; 0.1 wt %): 0 | Grade (human skin; 0.1 wt %): I (Degree of irritation 0-0.1: Grade I (unstimulated)) | Test result(number of subject) (+) (human skin; 0.1 wt %): 0 | Test result(number of subject) (++) (human skin; 0.1 wt %): 0 | Test result(number of subject) (±) (human skin; 0.1 wt %): 0 | Test result(number of subject) (−) (human skin; 0.1 wt %): 20 | Degree of irritation (human skin; 0.5 wt %): 0 | Grade (human skin; 0.5 wt %): I (Degree of irritation 0-0.1: Grade I (unstimulated)) | Test result(number of subject) (+) (human skin; 0.5 wt %): 0 | Test result(number of subject) (++) (human skin; 0.5 wt %): 0 | Test result(number of subject) (±) (human skin; 0.5 wt %): 0 | Test result(number of subject) (−) (human skin; 0.5 wt %): 20 | Degree of irritation (human skin; 1.0 wt %): 0.10 | Grade (human skin; 1.0 wt %): I (Degree of irritation 0-0.1: Grade I (unstimulated)) | Test result(number of subject) (+) (human skin; 1.0 wt %): 0 | Test result(number of subject) (++) (human skin; 1.0 wt %): 0 | Test result(number of subject) (±) (human skin; 1.0 wt %): 2 | Test result(number of subject) (−) (human skin; 1.0 wt %): 18 | Area (mAU*min) 30 min [4]: 0.174 mAU*min | Area (mAU*min) 180 min [4]: 0 mAU*min | Area (mAU*min) Initial [4]: 0.305 mAU*min
